The nature of one assay: Bio-assay (mcg./mg.). On the procedure:
7-[D-α-amino-α-(p-hydroxyphenyl)acetamido]-3-(1,2,3-triazol-5-ylthiomethyl)-3-cephem-4-carboxylic acid methanol solvate (15 g.) was slurried in 60 ml. of water. The pH was raised to 6.5 by addition of 4N NaOH and the mixture was passed through a 200 mesh screen. The reaction mixture was slurried at room temperature for 2 hours, the pH being maintained at 6.5 during this period. The crystals were removed by filtration, washed with 20 ml. of water and air dried at 37° C. for 24 hours to give 11.5 g. of title crystalline product. Bio assay = 924 mcg./mg. (average % H2 O, K.F. = 5.26).
7-[D-α-amino-α-(p-hydroxyphenyl)acetamido]-3-(1,2,3-triazol-5-ylthiomethyl)-3-cephem-4-carboxylic acid methanol solvate (200 mesh; 10.0 g.) substantially free of propylene glycol is slurried in 30-40 ml. of deionized water at ambient room temperature (20°-25° C.) to give a pH 3-4 aqueous suspension. NaOH (40%) is slowly added with rapid stirring to bring the pH to 6.3-6.7. The mixture is slurried at pH 6.3-6.7 for 2 hours. The crystals are removed by filtration, washed with water and air dried at room temperature for 24 hours to give a 75-80% weight yield of 950-1000 mcg./mg. crystals of 7-[D-α-amino-α-(p-hydroxyphenyl)acetamido]-3-(1,2,3-triazol-5-ylthiomethyl)-3-cephem-4-carboxylic acid dihydrate. […] H2 O, K.F. = 6.56.

A further assay concerns Ent. cloacae A9659. The assay is described as follows: Antibiotic spectrum in nutrient broth, MIC. The class given is cell-based. The conditions noted are these: Enterobacter cloacae, 10^-4 dilution, BL-S1052 adjusted for 97.5% content of BL-S640. The source says: (§1) Antibiotic Spectrum in Nutrient Broth
(§2) **Dilution of overnight broth culture.
(§3) This adjustment was also mad
(§4) in the tests reported below or in the alternative, a larger weight was
(§5) used to provide equivalent dosage.

The subject of another assay is Pr. morganii A15153. The assay is described as follows: Antibiotic spectrum in nutrient broth, MIC. The class given is cell-based. As to conditions: Morganella morganii, 10^-4 dilution, BL-S1052 adjusted for 97.5% content of BL-S640.
Text: as §1, §2, §3, §4, §5

The test system of another assay is S. aureus BX1633. The assay is described as follows: Antibiotic spectrum in nutrient broth, MIC. The conditions noted are these: Staphylococcus aureus. The class given is cell-based.
Text: as §1, §2, §3, §4, §5

Structures are written as SMILES. Converted amounts (≈) assume the structure as drawn. Like-named read-outs stand apart in the source and are kept apart here.

In the case of `O=C(O)C1=C(CSc2c[nH]nn2)CSC2C(N3C(=O)C(c4ccc(O)cc4)NC3c3ccco3)C(=O)N12` (centres unmarked) [BL-S1052], the Bio-assay in “Bio-assay (mcg./mg.)” lay within 775 to 800 µg/mg. Further, the MIC amounted to 32 µg/mL (≈ 59.2 µM) with Ent. cloacae A9659; 32 µg/mL (≈ 59.2 µM) with Pr. morganii A15153; 0.25 µg/mL (≈ 0.462 µM) in the assay with S. aureus BX1633 (BX1633); 2 µg/mL (≈ 3.7 µM) with S. aureus BX1633 (BX1633, 10^-2 dilution, A9606, BL-S1052 adjusted for 97.5% content of BL-S640, read-out: MIC).

Broadly, the MIC is the lowest concentration found to suppress growth.
